What was measured:
Format in all cases: biochemical
LCK = LCK (Homo sapiens, UniProt P06239); assay: Kinase panel inhibition, LCK (one of the methods of Example 76a, 76b, 76c)
Description: (§1) Btk kinase activity is determined using a time-resolved fluorescence resonance energy transfer (TR-FRET) methodology. Measurements are performed in a reaction volume of 50 μL using 96-well assay plates. Kinase enzyme, inhibitor, ATP (at the Km for the kinase), and 1 peptide substrate (Biotin-AVLESEEELYSSARQ-NH2) are incubated in a reaction buffer composed of 20 mM Tris, 50 mM NaCl, MgCl2 (5-25 mM depending on the kinase), MnCl2 (0-10 mM), 1 mM DTT, 0.1 mM EDTA, 0.01% bovine serum albumin, 0.005% Tween-20, and 10% DMSO at pH 7.4 for one hour. The reaction is quenched by the addition of 1.2 equivalents of EDTA (relative to divalent cation) in 25 μL of 1× Lance buffer (Perkin-Elmer). Streptavidin-APC (Perkin-Elmer) and Eu-labeled p-Tyr100 antibody (Perkin-Elmer) in 1× Lance buffer are added in a 25 μL volume to give final concentrations of 100 nM and 2.5 nM, respectively, and the mixture is allowed to incubate for one hour. The TR-FRET signal is measured on a multimode plate reader with an excitation wavelength (λEx) of 330 nm and detection wavelengths (λEm) of 615 and 665 nm. Activity is determined by the ratio of the fluorescence at 665 nm to that at 615 nm. For each compound, enzyme activity is measured at various concentrations of compound. Negative control reactions are performed in the absence of inhibitor in replicates of six, and two no-enzyme controls are used to determine baseline fluorescence levels. Inhibition constants, Ki(app), were obtained using the program BatchKi (Kuzmic et al. (2000), Anal. Biochem. 286:45-50). IC50s are obtained according to the equation: IC50=[…]+[E]total/2;
(§2) For all kinases, [ATP]=Km^ATP, [Btk]total=0.5 nM and [Lck]total=6 nM.
(§3) Kinase activity is measured in vitro using electrophoretic mobility shift assay. The kinase reactions are assembled in a total volume of 25 μL in 384 well plates. The reactions comprise: BTK enzyme (1 nM, N-terminal His6-tagged, recombinant, full-length, human BTK purified from baculovirus Sf21 insect cell system), inhibitor, ATP (16 μM, the apparent Km for the kinase), fluorescently labeled peptide substrate (1 μM, FAM-GEEPLYWSFPAKKK-NH2) in a reaction buffer composed of 100 mM HEPES, pH7.5, 5 mM MgCl2 1 mM DTT, 0.1% bovine serum albumin, 0.01% Triton X-100, and 1% DMSO. The reaction is incubated for one hour and is quenched by the addition of 45 μL of termination buffer (100 mM HEPES, pH7.5, 0.01% Triton X-100, 30 mM EDTA). The terminated reactions are analyzed using 12 channel LabChip® 3000 microfluidic detection instrument (Caliper Life Sciences). The enzymatic phosphorylation of the peptide results in a change in net charge, enabling electrophoretic separation of product from substrate peptide. As substrate and product peptides are separated, two peaks of fluorescence are observed. Change in the relative fluorescence intensity of the substrate and product peaks is the parameter measured, reflecting enzyme activity. In the presence of an inhibitor, the ratio between product and substrate is altered:the signal of the product decreases, while the signal of the substrate increases.
(§4) Activity in each sample is determined as the product to sum ratio (PSR):P/(S+P), where P is the peak height of the product peptide and S is the peak height of the substrate peptide. For each compound, enzyme activity is measured at various concentrations (12 concentrations of compound spaced by 3× dilution intervals). Negative control samples (0%-inhibition in the absence of inhibitor) and positive control samples (100%-inhibition, in the presence of 20 mM EDTA) are assembled in replicates of four and are used to calculate %-inhibition values for each inhibitor at each concentration. Percent inhibition (Pinh) is determined using following equation: […]

BTK = target: T1, BTK (Homo sapiens, UniProt Q06187); assay: Btk in vitro inhibitory activity (kinase assay by one of Methods A, B or C)
T1 construct: purified from insect cells as a full-length construct containing a N-terminal 6×-His tag; His6 (N); host or cells: insect cells (baculovirus Sf21)
T1 sequence (Q06187 whole entry): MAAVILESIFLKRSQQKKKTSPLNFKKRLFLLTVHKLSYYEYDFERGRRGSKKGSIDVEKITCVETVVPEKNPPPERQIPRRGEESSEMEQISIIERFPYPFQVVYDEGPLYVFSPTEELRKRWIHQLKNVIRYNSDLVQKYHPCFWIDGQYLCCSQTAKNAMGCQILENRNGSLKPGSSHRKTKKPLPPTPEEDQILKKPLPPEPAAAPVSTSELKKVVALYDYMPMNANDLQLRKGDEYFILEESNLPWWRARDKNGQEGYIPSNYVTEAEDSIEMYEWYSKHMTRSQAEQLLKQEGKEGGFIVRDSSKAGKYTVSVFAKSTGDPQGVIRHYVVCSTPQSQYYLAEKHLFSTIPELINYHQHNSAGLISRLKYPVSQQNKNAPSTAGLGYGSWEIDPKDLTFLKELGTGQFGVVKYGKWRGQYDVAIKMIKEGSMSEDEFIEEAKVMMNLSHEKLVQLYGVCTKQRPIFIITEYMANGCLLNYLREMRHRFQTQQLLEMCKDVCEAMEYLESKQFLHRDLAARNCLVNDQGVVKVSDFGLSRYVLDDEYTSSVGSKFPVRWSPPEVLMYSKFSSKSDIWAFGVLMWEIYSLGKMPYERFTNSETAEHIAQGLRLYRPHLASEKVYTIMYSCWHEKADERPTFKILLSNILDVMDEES
Description: as §1, §2, §3, §4

EGFR = EGFR (Homo sapiens, UniProt P00533); assay: Kinase panel inhibition, EGFR (one of the methods of Example 76a, 76b, 76c)
Sequence of EGFR (P00533 25-1210, species assumed): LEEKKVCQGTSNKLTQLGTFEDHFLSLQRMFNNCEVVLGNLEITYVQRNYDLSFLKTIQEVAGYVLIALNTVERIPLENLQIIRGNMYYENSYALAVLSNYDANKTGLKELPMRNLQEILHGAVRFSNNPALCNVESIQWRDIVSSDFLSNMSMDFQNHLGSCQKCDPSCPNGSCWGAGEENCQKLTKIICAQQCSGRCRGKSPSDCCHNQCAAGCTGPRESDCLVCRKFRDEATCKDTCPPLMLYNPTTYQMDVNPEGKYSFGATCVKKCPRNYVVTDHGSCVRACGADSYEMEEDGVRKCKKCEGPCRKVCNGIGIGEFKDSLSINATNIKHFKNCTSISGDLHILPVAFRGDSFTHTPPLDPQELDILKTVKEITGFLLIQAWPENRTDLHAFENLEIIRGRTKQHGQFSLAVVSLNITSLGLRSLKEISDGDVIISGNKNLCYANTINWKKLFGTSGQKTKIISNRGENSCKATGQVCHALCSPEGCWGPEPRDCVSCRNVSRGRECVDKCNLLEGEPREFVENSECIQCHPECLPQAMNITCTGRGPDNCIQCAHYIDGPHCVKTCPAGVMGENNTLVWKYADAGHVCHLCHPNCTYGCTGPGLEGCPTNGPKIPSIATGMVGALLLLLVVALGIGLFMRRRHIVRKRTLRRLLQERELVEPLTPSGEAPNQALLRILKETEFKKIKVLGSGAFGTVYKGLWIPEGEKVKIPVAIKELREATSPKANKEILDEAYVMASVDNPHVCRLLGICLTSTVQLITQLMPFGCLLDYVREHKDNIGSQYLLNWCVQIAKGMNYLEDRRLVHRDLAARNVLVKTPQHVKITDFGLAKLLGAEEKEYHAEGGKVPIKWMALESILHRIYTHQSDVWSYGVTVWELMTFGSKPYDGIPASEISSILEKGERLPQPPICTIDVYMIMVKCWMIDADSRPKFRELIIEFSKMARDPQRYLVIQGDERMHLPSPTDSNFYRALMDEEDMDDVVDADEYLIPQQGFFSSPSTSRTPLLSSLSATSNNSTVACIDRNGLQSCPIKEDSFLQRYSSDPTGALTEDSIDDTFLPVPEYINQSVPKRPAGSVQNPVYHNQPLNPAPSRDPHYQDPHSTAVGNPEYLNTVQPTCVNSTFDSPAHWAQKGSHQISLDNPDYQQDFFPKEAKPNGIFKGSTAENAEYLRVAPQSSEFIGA
Description: as §1, §2, §3, §4

Sequence of LCK (P06239 whole entry, species assumed): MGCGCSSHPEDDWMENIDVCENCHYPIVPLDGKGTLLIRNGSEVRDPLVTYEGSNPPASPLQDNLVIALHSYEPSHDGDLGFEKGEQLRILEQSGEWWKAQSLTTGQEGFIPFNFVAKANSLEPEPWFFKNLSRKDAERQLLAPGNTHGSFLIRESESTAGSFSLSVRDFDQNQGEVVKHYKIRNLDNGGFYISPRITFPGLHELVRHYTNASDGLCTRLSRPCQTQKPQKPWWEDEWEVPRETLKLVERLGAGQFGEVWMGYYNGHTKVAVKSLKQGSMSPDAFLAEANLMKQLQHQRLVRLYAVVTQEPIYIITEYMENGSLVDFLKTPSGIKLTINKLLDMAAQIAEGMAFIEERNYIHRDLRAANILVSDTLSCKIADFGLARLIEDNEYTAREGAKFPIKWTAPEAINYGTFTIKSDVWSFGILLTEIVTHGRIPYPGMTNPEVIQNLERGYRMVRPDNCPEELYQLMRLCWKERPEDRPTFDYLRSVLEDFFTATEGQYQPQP

Row | Compound | IC50 (LCK) [nM] | IC50 (BTK) [nM] | IC50 (EGFR) [nM]
1 | COc1cc(-n2c(=O)n(-c3cccc(N(C)C(=O)/C=C/CN(C)C4CC4)c3)c3ncnc(N)c32)ccc1OCc1ccccc1 [Compound 295, (E)-N-(3-(6-amino-7-(4-(benzyloxy)-3-methoxyphenyl)-8-oxo-7H-purin-9(8H)-yl)phenyl)-4-(cyclopropyl(methyl)amino)-N-methylbut-2-enamide] | > 10000 | < 100 | > 10000
2 | COc1cc(NC(=O)/C=C/CN(C)C2CC2)cc(-n2c(=O)n(-c3ccc(Oc4ccccc4)cc3)c3c(N)ncnc32)c1 [Compound 263, (E)-N-(3-(6-amino-8-oxo-7-(4-phenoxyphenyl)-7H-purin-9(8H)-yl)-5-methoxyphenyl)-4-(cyclopropyl(methyl)amino)but-2-enamide] | – | < 100 | –
3 | COCCOc1ccc(-n2c(=O)n(-c3ccc(C)c(OC)c3)c3c(N)ncnc32)cc1N(C)C(=O)/C=C/CN(C)C [Compound 104, (E)-N-(5-(6-amino-7-(3-methoxy-4-methylphenyl)-8-oxo-7H-purin-9(8H)-yl)-2-(2-methoxyethoxy)phenyl)-4-(dimethylamino)-N-methylbut-2-enamide] | > 10000 | 100 to 1000 | > 10000
4 | Cc1cc(NC(=O)/C=C/CN(C)C2CC2)cc(-n2c(=O)n(-c3ccc(Oc4ccccc4)cc3C)c3c(N)ncnc32)c1 [Compound 298, (E)-N-(3-(6-amino-7-(2-methyl-4-phenoxyphenyl)-8-oxo-7H-purin-9(8H)-yl)-5-methylphenyl)-4-(cyclopropyl(methyl)amino)but-2-enamide] | 1000 to 10000 | < 100 | 100 to 1000
5 | COCCN(C)C/C=C/C(=O)Nc1cccc(-n2c(=O)n(-c3ccc(Oc4ccccc4)cc3)c3c(N)ncnc32)c1 [Compound 318, (E)-N-(3-(6-amino-8-oxo-7-(4-phenoxyphenyl)-7H-purin-9(8H)-yl)phenyl)-4-((2-methoxyethyl)(methyl)amino)but-2-enamide] | 100 to 1000 | < 100 | < 100
6 | CN(C(=O)/C=C/CN(C)C1CCC1)c1cccc(-n2c(=O)n(-c3ccc(Oc4ccccc4)cc3)c3c(N)ncnc32)c1 [Compound 35, (E)-N-(3-(6-amino-8-oxo-7-(4-phenoxyphenyl)-7H-purin-9(8H)-yl)phenyl)-4-(cyclobutyl(methyl)amino)-N-methylbut-2-enamide] | – | < 100 | –
7 | C=CC(=O)N(C)c1ccc(-n2c(=O)n(-c3ccc(Cl)cc3)c3c(N)ncnc32)cc1 [Compound 51, N-(4-(6-amino-7-(4-chlorophenyl)-8-oxo-7H-purin-9(8H)-yl)phenyl)-N-methylacrylamide] | 1000 to 10000 | < 100 | 100 to 1000
8 | CN(C)C/C=C/C(=O)Nc1cccc(-n2c(=O)n(-c3ccc(Cl)cc3)c3c(N)ncnc32)c1 [Compound 14, (E)-N-(3-(6-amino-7-(4-chlorophenyl)-8-oxo-7H-purin-9(8H)-yl)phenyl)-4-(dimethylamino)but-2-enamide] | 1000 to 10000 | < 100 | 1000 to 10000
9 | COCCN(C)C/C=C/C(=O)N(C)c1cccc(-n2c(=O)n(-c3ccc(Oc4ccccc4)cc3)c3c(N)ncnc32)c1 [Compound 134, (E)-N-(3-(6-amino-8-oxo-7-(4-phenoxyphenyl)-7H-purin-9(8H)-yl)phenyl)-4-((2-methoxyethyl)(methyl)amino)-N-methylbut-2-enamide] | 1000 to 10000 | < 100 | 100 to 1000
10 | C=CC(=O)N1CC[C@@H](n2c(=O)n(-c3ccc(Cl)cc3)c3c(N)ncnc32)C1 [Compound 78, (R)-9-(1-acryloylpyrrolidin-3-yl)-6-amino-7-(4-chlorophenyl)-7H-purin-8(9H)-one] | – | < 100 | –
11 | C=CC(=O)N(C)c1ccc(-n2c(=O)n(-c3ccc(C)c(OC)c3)c3c(N)ncnc32)cc1 [Compound 55, N-(4-(6-amino-7-(3-methoxy-4-methylphenyl)-8-oxo-7H-purin-9(8H)-yl)phenyl)-N-methylacrylamide] | 1000 to 10000 | < 100 | 1000 to 10000
12 | CN(C(=O)/C=C/CN(C)C1CC1)c1cccc(-n2c(=O)n(-c3ccc(NC(=O)c4ccccc4)cc3)c3c(N)ncnc32)c1 [Compound 274, (E)-N-(4-(6-amino-9-(3-(4-(cyclopropyl(methyl)amino)-N-methylbut-2-enamido)phenyl)-8-oxo-8,9-dihydro-7H-purin-7-yl)phenyl)benzamide] | – | < 100 | –
13 | COc1ccc(N(C)C(=O)/C=C/CN(C)C2CC2)cc1-n1c(=O)n(-c2ccc(Oc3ccccc3)cc2)c2c(N)ncnc21 [Compound 181, (E)-N-(3-(6-amino-8-oxo-7-(4-phenoxyphenyl)-7H-purin-9(8H)-yl)-4-methoxyphenyl)-4-(cyclopropyl(methyl)amino)-N-methylbut-2-enamide] | – | 100 to 1000 | –
14 | CN(C(=O)/C=C/CN(C)C1CC1)c1cccc(-n2c(=O)n(-c3ccc(Oc4ccc(O)cc4)cc3)c3c(N)ncnc32)c1 [Compound 269, (E)-N-(3-(6-amino-7-(4-(4-hydroxyphenoxy)phenyl)-8-oxo-7H-purin-9(8H)-yl)phenyl)-4-(cyclopropyl(methyl)amino)-N-methylbut-2-enamide] | – | < 100 | –
15 | CN(C(=O)/C=C/CN(C)C1CC1)c1cccc(-n2c(=O)n(-c3ccc(C(=O)Nc4ccccc4)cc3)c3c(N)ncnc32)c1 [Compound 280, (E)-4-(6-amino-9-(3-(4-(cyclopropyl(methyl)amino)-N-methylbut-2-enamido)phenyl)-8-oxo-8,9-dihydro-7H-purin-7-yl)-N-phenylbenzamide] | – | 100 to 1000 | –
16 | Nc1ncnc2c1n(-c1ccc(Oc3ccccc3)cc1)c(=O)n2-c1cccc(NC(=O)/C=C/CNC2CC2)c1 [Compound 116, (E)-N-(3-(6-amino-8-oxo-7-(4-phenoxyphenyl)-7H-purin-9(8H)-yl)phenyl)-4-(cyclopropylamino)but-2-enamide] | – | < 100 | –
17 | C=CC(=O)N1CC[C@@H](n2c(=O)n(-c3ccc(C)c(OC)c3)c3c(N)ncnc32)C1 [Compound 82, (R)-9-(1-acryloylpyrrolidin-3-yl)-6-amino-7-(3-methoxy-4-methylphenyl)-7H-purin-8(9H)-one] | – | < 100 | –
18 | CN(C(=O)/C=C/CN)c1cccc(-n2c(=O)n(-c3ccc(Oc4ccccc4)cc3)c3c(N)ncnc32)c1 [Compound 326, (E)-4-amino-N-(3-(6-amino-8-oxo-7-(4-phenoxyphenyl)-7H-purin-9(8H)-yl)phenyl)-N-methylbut-2-enamide] | – | 100 to 1000 | –
19 | C=CC(=O)N1CCC[C@@H](n2c(=O)n(-c3ccc(Cl)cc3)c3c(N)ncnc32)C1 [Compound 90, (R)-9-(1-acryloylpiperidin-3-yl)-6-amino-7-(4-chlorophenyl)-7H-purin-8(9H)-one] | – | < 100 | –
20 | C=CC(=O)N1CCC[C@@H](n2c(=O)n(-c3ccc(C)c(OC)c3)c3c(N)ncnc32)C1 [Compound 93, (R)-9-(1-acryloylpiperidin-3-yl)-6-amino-7-(3-methoxy-4-methylphenyl)-7H-purin-8(9H)-one] | – | < 100 | –
21 | C=CC(=O)N(C)c1cccc(-n2c(=O)n(-c3ccc(C)c(OC)c3)c3c(N)ncnc32)c1 [Compound 76, N-(3-(6-amino-7-(3-methoxy-4-methylphenyl)-8-oxo-7H-purin-9(8H)-yl)phenyl)-N-methylacrylamide] | – | < 100 | –
22 | C=CC(=O)N(C)c1cccc(-n2c(=O)n(-c3ccc(Cl)cc3)c3c(N)ncnc32)c1 [Compound 77, N-(3-(6-amino-7-(4-chlorophenyl)-8-oxo-7H-purin-9(8H)-yl)phenyl)-N-methylacrylamide] | – | < 100 | –

From patent US9469642B2, “Purinone compounds as kinase inhibitors” (Pharmacyclics LLC, priority 2012, dated 2016)
